According to US7255796B2, “Method of preventing hydrogen sulfide odor generation in an aqueous medium” (General Electric Company, priority 2004, dated 2007):
Marks after values point to notes of the source that are not given here.

Columns and labels:
[1] = tested on: sulfate reducing bacteria (SRB); assay: Serum bottle test: SRB growth after treatment (toxicity); assay type: cell-based, sulfate reducers
Method: (§1) The test protocol was as follows: 100 mL serum bottles were filled with synthetic nutrient medium, then stoppered, capped, and autoclaved, and allowed to cool to at least 35C. Using a 1 mL syringe with needle, the treatment was added at desired dosages to prepared serum bottles (triplicates of each dosage). No treatment was added for baseline controls. At least 6 baseline serum bottles were used. Using a 1 mL syringe with needle, 0.1 mL of prepared culture was added to each serum bottle.
(§2) Next, a 10^10 cells/ml concentration of the sulfate reducers was prepared (using autoclaved synthetic nutrient medium) inside an anaerobic chamber. Using a 1 ml syringe with needle, 0.1 ml of the prepared sulfate reducers culture was added to each serum bottle. The bottles were then incubated at the desired temperature.
(§3) The baseline dissolved sulfide levels were then measured to determine if the samples were ready for efficacy analysis. Using a 30 mL syringe with needle, 30 mL of sample was removed from each serum bottle. About 25 mL of the sample was added to a 30 mL bottle containing 0.125 mL zinc acetate solution, followed by adding 1 mL of 1N NaOH. The sulfide in the fixed sample was then measured. The remaining 5 mL of sample in the syringe was used for pH determination. Separate field studies were also conducted.

[2] = tested on: microorganisms (PetriFilm Count); assay: Serum bottle test: PetriFilm count after treatment (toxicity); assay type: cell-based
Method: as §1, §2, §3

[3] = Serum bottle test: medium pH after treatment; assay type: physicochemical
Method: as §1, §2, §3

[4] = tested on: real municipal wastewater; assay: H2S inhibition using real municipal wastewater, Field Study 1
[5] = tested on: real municipal wastewater; assay: H2S inhibition using real municipal wastewater, Field Study 2
[6] = scavenger dosage 200 ppm active
[7] = Field Study 1, scavenger dosage 10 ppm active
[8] = Field Study 2, scavenger dosage 10 ppm active

O=CCCCC=O [Glutaraldehyde, reference compound]
SRB Growth after Treatment [1, 6]: 0
PetriFilm Count after Treatment [2, 6]: 0
Medium pH after Treatment [3, 6]: 7.5

O=CC=O [Glyoxal, glyoxal]
SRB Growth after Treatment ([1]; scavenger dosage 8 ppm active): 10^8
Head Space H2S ([4]; Field Study 1, scavenger dosage 0.3 ppm active): 27 ppm
Head Space H2S ([4]; Field Study 1, scavenger dosage 3.8 ppm active): 8 ppm
Head Space H2S ([4]; Field Study 1, scavenger dosage 6.0 ppm active): 7 ppm
Head Space H2S ([4]; Field Study 1, scavenger dosage 8 ppm active): 2 ppm
Head Space H2S [4, 7]: 0.5 ppm
Head Space H2S ([5]; Field Study 2, scavenger dosage 0.5 ppm active): 47 ppm
Head Space H2S ([5]; Field Study 2, scavenger dosage 4.0 ppm active): 12 ppm
Head Space H2S ([5]; Field Study 2, scavenger dosage 6.0 ppm active): 0.1 ppm
Head Space H2S ([5]; Field Study 2, scavenger dosage 8.0 ppm active): 0.1 ppm
Head Space H2S [5, 8]: 5.0* ppm
PetriFilm Count after Treatment ([2]; scavenger dosage 8 ppm active): 8.3 × 10^8
Medium pH after Treatment ([3]; scavenger dosage 8 ppm active): 6.5

O=[N+]([O-])[O-].O=[N+]([O-])[O-].[Mg+2] [Mg(NO3)2, magnesium nitrate, reference compound]
Head Space H2S [4, 7]: 27 ppm
Head Space H2S [5, 8]: 47 ppm

c1ncncn1 [Triazine, triazine]
SRB Growth after Treatment ([1]; scavenger dosage 8 ppm active): 10^8
PetriFilm Count after Treatment ([2]; scavenger dosage 8 ppm active): 5.5 × 10^8
Medium pH after Treatment ([3]; scavenger dosage 8 ppm active): 6.5
